Laboratory results reported in patent US8304206B2, “Mass spectrometry assays for identifying compounds that activate deacetylases” (Sirtris Pharmaceuticals, Inc., priority 2005, dated 2012).

Target: T1, SIRT1 (Homo sapiens, UniProt Q96EB6)
T1 sequence (Q96EB6 1-747): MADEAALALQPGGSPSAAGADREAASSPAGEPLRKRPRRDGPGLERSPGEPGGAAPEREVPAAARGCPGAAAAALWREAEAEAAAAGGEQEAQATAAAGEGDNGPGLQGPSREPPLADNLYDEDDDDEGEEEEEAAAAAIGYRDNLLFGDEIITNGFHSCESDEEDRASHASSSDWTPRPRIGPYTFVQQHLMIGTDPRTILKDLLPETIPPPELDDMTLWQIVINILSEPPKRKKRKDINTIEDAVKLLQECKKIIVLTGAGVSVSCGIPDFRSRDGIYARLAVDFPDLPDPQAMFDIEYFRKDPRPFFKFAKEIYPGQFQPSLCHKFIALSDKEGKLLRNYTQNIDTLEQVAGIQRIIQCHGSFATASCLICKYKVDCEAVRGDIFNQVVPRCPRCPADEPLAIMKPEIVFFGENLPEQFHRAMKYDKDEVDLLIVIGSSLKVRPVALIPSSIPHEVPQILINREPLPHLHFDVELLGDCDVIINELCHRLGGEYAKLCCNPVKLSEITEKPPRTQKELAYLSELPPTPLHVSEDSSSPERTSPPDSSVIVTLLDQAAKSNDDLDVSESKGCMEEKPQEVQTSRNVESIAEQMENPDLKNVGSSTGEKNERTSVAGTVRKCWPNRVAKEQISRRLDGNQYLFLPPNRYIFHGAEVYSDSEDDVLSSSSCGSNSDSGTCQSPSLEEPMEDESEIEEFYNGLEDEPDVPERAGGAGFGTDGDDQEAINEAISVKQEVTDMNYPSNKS
Assay: SIRT1 mass spectrometry assay (screening for activation)
Type: biochemical
Conditions: for FOLD ACTIVATION MS: activation of SIRT1, mass spectrometry; for EC50: activation of SIRT1, 0.5 μM peptide substrate (SEQ ID NO: 34), 120 μM NAD+, 10 nM SIRT1, 25 min, read-out: ED50 MS ASSAY

SMILES	FOLD ACTIVATION MS	EC50 [µM]
COc1ccc(C(=O)Nc2cccc(-c3nc4ncccc4o3)n2)c(OC)c1 [compound 69]	B (Fold Activation<250%)	–
O=C(Nc1ccc2c(c1)OCO2)Nc1cccc(-c2nc3ncccc3o2)n1 [compound 71]	B (Fold Activation<250%)	–
COc1cc(C(=O)Nc2cc(-c3nc4ncccc4o3)ccn2)cc(OC)c1OC [compound 75]	B (Fold Activation<250%)	–
COc1ccc(C(=O)Nc2cc(-c3nc4ccccc4o3)ccn2)cc1OC [compound 77]	B (Fold Activation<250%)	–
COc1ccc(C(=O)Nc2cccc(-c3csc(C)n3)c2)c(OC)c1 [compound 81]	B (Fold Activation<250%)	–
COc1ccc(C(=O)Nc2cccc(-c3csc(-c4ccccc4)n3)c2)cc1OC [compound 84]	B (Fold Activation<250%)	–
Cc1nc(-c2cccc(Nc3nc4ccccc4o3)c2)cs1 [compound 92]	B (Fold Activation<250%)	–
c1cc(Nc2nc3ccccc3o2)cc(-c2nc3ncccc3o2)c1 [compound 93]	B (Fold Activation<250%)	–
CN(C)c1cccc(C(=O)Nc2ccccc2-c2nc3ncccc3o2)c1 [compound 97]	B (Fold Activation<250%)	< 50
O=C(Nc1cccc(-c2nc3ccncc3s2)c1)Nc1ccc2c(c1)OCO2 [compound 99]	A (Fold activation>250%)	< 50
COc1ccc(NC(=O)c2cccc(-c3nc4ncccc4o3)c2)cc1OC [compound 101]	A (Fold activation>250%)	–
c1cc(Nc2nc3ccccc3o2)nc(-c2nc3ncccc3o2)c1 [compound 105]	B (Fold Activation<250%)	< 50
COc1cc(C(=O)Nc2ccccc2-c2nc3ncccc3o2)cc(OC)c1OC [compound 106]	B (Fold Activation<250%)	< 50
COc1cc(OC)cc(C(=O)Nc2ccccc2-c2nc3ccccc3[nH]2)c1 [compound 141]	B (Fold Activation<250%)	< 50
COc1ccc(C(=O)Nc2ccccc2-c2nc3ccccc3[nH]2)cc1OC [compound 142]	A (Fold activation>250%)	< 50
COc1ccc(C(=O)Nc2sccc2-c2nc3ccccc3s2)cc1OC [compound 145]	B (Fold Activation<250%)	< 50
COc1cc(OC)cc(C(=O)Nc2sccc2-c2nc3ccccc3s2)c1 [compound 146]	B (Fold Activation<250%)	< 50
COc1cc(C)ccc1C(=O)Nc1ccc(-c2nc3cccnc3[nH]2)cc1 [compound 149]	B (Fold Activation<250%)	< 50
COc1ccc(C(=O)Nc2ccc(-c3nc4cccnc4[nH]3)cc2)cc1OC [compound 150]	B (Fold Activation<250%)	< 50

SMILES	FOLD ACTIVATION MS	EC50 [µM]
COc1ccc(C(=O)Nc2cc(C(=O)NCCN(C)C)cc(-c3nc4ncccc4o3)c2)cc1OC [compound 153]	B (Fold Activation<250%)	–
CN(C)CCNC(=O)c1cc(NC(=O)c2cccc(N(C)C)c2)cc(-c2nc3ncccc3o2)c1 [compound 154]	A (Fold activation>250%)	–
COc1ccc(C(=O)Nc2cc(CN(C)C)cc(-c3nc4ncccc4o3)c2)cc1OC [compound 156]	B (Fold Activation<250%)	–
CN(C)Cc1cc(NC(=O)c2cccc(N(C)C)c2)cc(-c2nc3ncccc3o2)c1 [compound 157]	B (Fold Activation<250%)	–
COc1ccc(C(=O)Nc2cc(CN(C)C)cc(-c3nc4ncccc4o3)c2)c(OC)c1 [compound 158]	B (Fold Activation<250%)	–
CN(C)c1cccc(C(=O)Nc2cc(CN3CCNCC3)cc(-c3nc4ncccc4o3)c2)c1 [compound 160]	A (Fold activation>250%)	–
COc1ccc(C(=O)Nc2cc(CN3CCNCC3)cc(-c3nc4ncccc4o3)c2)c(OC)c1 [compound 161]	A (Fold activation>250%)	–
COc1ccc(C(=O)Nc2ccccc2-c2nc3ccncc3s2)cc1OC [compound 162]	B (Fold Activation<250%)	< 50
CN(C)Cc1ccc2oc(-c3cccc(NC(=O)c4cccc(N(C)C)c4)c3)nc2n1 [compound 165]	A (Fold activation>250%)	–
CN(C)c1cccc(C(=O)Nc2cccc(-c3nc4nc(CN5CCNCC5)ccc4o3)c2)c1 [compound 166]	B (Fold Activation<250%)	–
Cc1ccc2oc(-c3cccc(NC(=O)c4cccc(N(C)C)c4)c3)nc2n1 [compound 167]	B (Fold Activation<250%)	–
CN(C(=O)Nc1ccccc1-c1nc2ccccc2[nH]1)c1ccccc1 [compound 169]	B (Fold Activation<250%)	< 50
COc1cc(C(=O)Nc2cc(CN(C)C)cc(-c3nc4ccncc4s3)c2)cc(OC)c1OC [compound 174]	A (Fold activation>250%)	–
COc1ccc(C(=O)Nc2ccccc2-n2cccc2)cc1OC [compound 175]	B (Fold Activation<250%)	–
COc1ccc(C(=O)Nc2ccccc2-c2cn3cc(CN(C)C)sc3n2)cc1OC [compound 178]	A (Fold activation>250%)	–
COc1cc(C(=O)Nc2ccccc2-c2cn3cc(CN(C)C)sc3n2)cc(OC)c1OC [compound 179]	A (Fold activation>250%)	< 50
CN(C)c1cccc(C(=O)Nc2ccc(-c3nc4cccnc4[nH]3)cc2)c1 [compound 180]	B (Fold Activation<250%)	–
COc1ccc(C(=O)Nc2cccc(-c3nc4cccnc4[nH]3)c2)c(OC)c1OC [compound 181]	A (Fold activation>250%)	< 50

Continued, values first:

FOLD ACTIVATION MS	EC50 [µM]	SMILES
B (Fold Activation<250%)	–	CN(C)c1ccc(C(=O)Nc2cccc(-c3nc4ncccc4o3)n2)cc1 [compound 70]
B (Fold Activation<250%)	–	CN(C)c1cccc(C(=O)Nc2cc(-c3nc4ncccc4o3)ccn2)c1 [compound 76]
B (Fold Activation<250%)	–	COc1ccc(C(=O)Nc2cccc(-c3csc(C)n3)c2)cc1OC [compound 80]
B (Fold Activation<250%)	–	COc1cc(SC)ccc1C(=O)Nc1cccc(-c2nncn2C)c1 [compound 83]
B (Fold Activation<250%)	< 50	c1cc(Nc2nc3ccccc3s2)cc(-c2nc3ncccc3o2)c1 [compound 95]
B (Fold Activation<250%)	< 50	COc1ccc(C(=O)Nc2ccccc2-c2nc3ncccc3o2)cc1OC [compound 96]
B (Fold Activation<250%)	–	COc1ccc(NC(=O)c2cccc(-c3nc4ncccc4o3)c2)c(OC)c1 [compound 100]
A (Fold activation>250%)	–	COc1cc(NC(=O)c2cccc(-c3nc4ncccc4o3)c2)cc(OC)c1OC [compound 102]
B (Fold Activation<250%)	< 50	c1cc(Nc2nc3ccccc3s2)nc(-c2nc3ncccc3o2)c1 [compound 104]
B (Fold Activation<250%)	–	COc1ccc(C(=O)Nc2cc(C(=O)NCCN(C)C)cc(-c3nc4ncccc4o3)c2)c(OC)c1 [compound 155]
B (Fold Activation<250%)	–	COc1ccc(C(=O)Nc2cc(CN3CCNCC3)cc(-c3nc4ncccc4o3)c2)cc1OC [compound 159]
B (Fold Activation<250%)	< 50	COc1cc(C(=O)Nc2ccccc2-c2nc3ccncc3s2)cc(OC)c1OC [compound 163]
B (Fold Activation<250%)	–	COc1ccc(C(=O)Nc2cc(C(=O)N3CCNCC3)cc(-c3nc4ncccc4o3)c2)cc1OC [compound 164]
B (Fold Activation<250%)	–	COc1cc(C(=O)Nc2ccccc2-n2cccn2)cc(OC)c1OC [compound 176]
B (Fold Activation<250%)	–	COc1ccc(C(=O)Nc2ccccc2-n2cccn2)cc1OC [compound 177]
A (Fold activation>250%)	< 50	COc1cc(C)ccc1C(=O)Nc1cccc(-c2nc3cccnc3[nH]2)c1 [compound 182]
